Test results reported in ChEMBL document CHEMBL1201862, “PubChem BioAssay data set” (2004).
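Values below derive from 48-hour exposures of cells grown in 96-well plates, with endpoints linearly interpolated between the two concentrations bracketing the appropriate inhibition level. GI50 marks 50% less growth.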 The source made the active and inactive calls. No stated cut-off is given here; in the data, active = GI50 up to about 1.1 µM and inactive = higher.

What was measured:
Assay in all cases: NCI tumour cell line growth inhibition, 48 h
786-0 = tested on: 786-0
A498 = tested on: A498
A549 = tested on: A549
ACHN = tested on: ACHN
CAKI-1 = tested on: CAKI-1
CCRF-CEM = tested on: CCRF-CEM
COLO 205 = tested on: COLO 205
DLD-1 = tested on: DLD-1
DMS-114 = tested on: DMS-114
DMS-273 = tested on: DMS-273
HCT-116 = tested on: HCT-116
HL-60 = tested on: HL-60
HOP-18 = tested on: HOP-18
HOP-92 = tested on: HOP-92
HT-29 = tested on: HT-29
IGROV-1 = tested on: IGROV-1
K562 = tested on: K562
KM-20L2 = tested on: KM-20L2
KM12 = tested on: KM12
LOX IMVI = tested on: LOX IMVI
LXFL 529 = tested on: LXFL 529
M14 = tested on: M14
M19-MEL = tested on: M19-MEL
MOLT-4 = tested on: MOLT-4
Malme-3M = tested on: Malme-3M
NCI-H226 = tested on: NCI-H226
NCI-H23 = tested on: NCI-H23
NCI-H460 = tested on: NCI-H460
NCI-H522 = tested on: NCI-H522
OVCAR-3 = tested on: OVCAR-3
OVCAR-4 = tested on: OVCAR-4
OVCAR-5 = tested on: OVCAR-5
OVCAR-8 = tested on: OVCAR-8
RPMI-8226 = tested on: RPMI-8226
RXF 393 = tested on: RXF 393
RXF 631 = tested on: RXF 631
SF-268 = tested on: SF-268
SF-295 = tested on: SF-295
SF-539 = tested on: SF-539
SK-MEL-28 = tested on: SK-MEL-28
SK-MEL-2 = tested on: SK-MEL-2
SK-MEL-5 = tested on: SK-MEL-5
SK-OV-3 = tested on: SK-OV-3
SN12C = tested on: SN12C
SNB-19 = tested on: SNB-19
SNB-75 = tested on: SNB-75
SNB-78 = tested on: SNB-78
SR = tested on: SR
SW-620 = tested on: SW-620
TK-10 = tested on: TK-10
U-251 = tested on: U-251
UACC-257 = tested on: UACC-257
UACC-62 = tested on: UACC-62
UO-31 = tested on: UO-31
XF498 = tested on: XF498

Measured: GI50

COc1ccc([Se]c2ccc(OC)cc2OC)c(OC)c1
inactive: 786-0 40.5 µM | A498 18.7 µM | A549 10.8 µM | ACHN 45.3 µM | CAKI-1 19.5 µM | CCRF-CEM 20.2 µM | COLO 205 11.4 µM | DLD-1 17.4 µM | DMS-114 3.44 µM | DMS-273 3.85 µM | HCT-116 12.1 µM | HL-60 5.38 µM | HOP-18 20.2 µM | HOP-92 2.2 µM | HT-29 4.58 µM | IGROV-1 5.37 µM | K562 10.5 µM | KM-20L2 8.38 µM | KM12 17.4 µM | LOX IMVI 24.6 µM | LXFL 529 30.1 µM | M14 18.4 µM | M19-MEL 9.46 µM | MOLT-4 5.36 µM | Malme-3M 14.9 µM | NCI-H226 20 µM | NCI-H23 29.9 µM | NCI-H460 19.6 µM | NCI-H522 13 µM | OVCAR-3 32 µM | OVCAR-4 21.9 µM | OVCAR-5 > 100 µM | OVCAR-8 33.6 µM | RPMI-8226 20.7 µM | RXF 393 18.2 µM | RXF 631 22.1 µM | SF-268 35.6 µM | SF-295 8.57 µM | SF-539 22.6 µM | SK-MEL-28 15.8 µM | SK-MEL-2 17.5 µM | SK-MEL-5 22.2 µM | SK-OV-3 34.3 µM | SN12C 36.4 µM | SNB-19 86.7 µM | SNB-75 9.02 µM | SNB-78 22.6 µM | SR 6.22 µM | SW-620 4.66 µM | TK-10 28.4 µM | U-251 21.6 µM | UACC-257 61.2 µM | UACC-62 11.1 µM | UO-31 18 µM | XF498 24.9 µM
